Results: patent US10174005B2, “Fused pyrimidines as inhibitors of p97 complex” (Cleave Biosciences, Inc., priority 2014, dated 2019)
Like-named read-outs stand apart in the source and are kept apart here.

Experiments:
A549 cells = experiment: Cultured cancer cell viability assay (cell titer glo, CTG) in A549 cells; type: cell-based; settings: Homo sapiens, read-out: A549 CTG IC50
Text: Anti-tumor effects are monitored in cultured cancer cells after several days of compound treatment. The cell titer glo assay (Promega) measures the amount of ATP present as a proxy for cellular viability. Cellular counting is done using high-content microscopy followed by image analysis. A hanging drop 3D-culture system (3D Biomatrix) is used followed by cell titer glo to measure growth in a tumor-like environment.
The cellular assay provides information about the anti-neoplastic activity of the compounds of the invention. The compounds are tested against cultured cancer cells to determine whether or not the compounds of the invention are capable of intersecting with cancer cells to minimize or eliminate such cells. The assay involves establishing colonies of such cells and then treating them with the test compound under specified conditions and analysis regima to determine results.
(§1) Cell Plating: • Seed cells ˜16 hrs prior to compound treatment • Plate 25 μL of A549 cells in every well of 384-well plate using multidrop. • Two (2) black plates for IF at 2500 cells/well • Let plate sit at room temp for 10-15 minutes prior to putting in incubator to • allow cells to stick in middle of plate. • One (1) white plate for viability at 500 cells/well.
(§2) Day 2 Treatment of Cultured Cells with Test Compounds • Treat Cells: • Serial dilute compounds with a 10 point 2-fold serial dilution in DMSO to make 250× stock compound solution • Dilute compounds 1:125 in cell culture media to make a 2× solution Add • 25 μl of dilution compounds to cell plates in well duplicates Put cells back in incubator (6 hr incubation for black plates, 72 hr incubation for white plates).
Viability Assay: • Thaw an aliquot of frozen cell titer glo (Promega G7572) at room temperature. • Add 45 mL of NaCl/PBS solution to 5 ml of cell titer glo (10×). • Remove white plates from incubator, leave at room temp for 30 minutes. • Add 25 μl of diluted cell titer glo to each well. • Shake plate for >1 minute. • Incubate plate for >5 minutes to stabilize luminescence. • Luminescence is stable for up to 3 hours. • Read luminescence on plate reader

[1] = tested on: K48-Ub (lysine-48 chain linkage of poly-ubiquitin) in A549 cells; experiment: A549 K48-Ub accumulation, immunofluorescence high-content imaging; type: cell-based; settings: Homo sapiens, 6 hr incubation
Description: Image-analysis is used to generate quantitative data from these assays that can be fit to a four-parameter sigmoid curve to derive IC50 values. Substrates of the ubiquitin-proteasome system, such as p53, are monitored after tumor cell lines are incubated with compounds for several hours. Accumulation of these proteins indicates an inhibition of proteasome-mediated degradation. Accumulation of lysine-48 chain linkage of poly-ubiquitin is also monitored by immunofluorescence as an indicator of ubiquitin-proteasome system inhibition. Both LC3 and SQSTM1 are mediators of autophagy. The localization and amounts of these proteins are monitored by immunofluorescence and report on the activity and inhibition of autophagy in response to p97 inhibition.
as §1, §2
Fix/Stain Black Plates: • Incubate cells in black plates with compound at 37 deg C. for 6 hrs. add 15 μL of 16% Paraformaldehyde (PFA) directly into media of each well, incubate at room temp for 5 min, flick plate and wash in 50 μL of PBS block in 50 μL of Blocking Buffer for 30 minutes (can go up to several hours) • Blocking buffer: 1×PBS, 1% BSA, 0.3% Triton-X 100, Hoechst (1:10,000) incubate in 25 μL of primary antibody in blocking buffer at 4 deg C. over night
Secondary Antibodies: • AlexaFluor488 Goat anti-Rabbit 1:2,000 (Life Tech A11008) • AlexaFluor555 Goat anti-Mouse 1:2.000 (Life Tech A21422)
Day 3/4 • Black Plate Staining (cont): • wash black plates 3× in 50 μL PBS (˜5 min each) incubate in 25 μl of secondary antibody (1:2,000) in blocking buffer for 1-2 hrs at room temp (alexafluor488-anti-Rabbit/alexafluor555-anti-Mouse) • wash 4× in 50 μL PBS (˜5 min each) • leave plates in PBS for imaging • clean bottom of plates with 70% EtOH
Imaging: • Image plates in high content microscope with 405 nm, 488 nm and 555 nm filters
Data Analysis: • Nuclear counts and cellular intensities of each markers are measured using Hoechst as a nuclear marker with an automated image analysis protocol using Matlab software (Math Works)

p97 = p97 (Homo sapiens, UniProt P55072); experiment: P97 ATPase biochemical assay (ADP Glo); settings: 20 nM p97, 20 μM ATP, 37° C. for 15 minutes
Description: The ATPase assay is performed according the following protocol: Purified enzyme (20 nM p97), substrate (20 μM ATP) and a dose titration of compounds are mixed in buffer (50 mM TRIS pH 7.5, 20 mM MgCl2, 0.02% TX-100, 1 mM DTT, 0.2% (v/v) glycerol) and incubated at 37° C. for 15 minutes. The reaction is terminated and the level of product generated is measured using the ADP Glo Assay Kit (Promega, Madison Wis.). Plotting product generated versus compound concentration and using a four-parameter fit model generates an IC50 value for each compounds.
The p97 assay is an initial screening assay used to determine inhibitory activity of the fused pyrimidine compounds of the invention against the p97 complex. As discussed above, inhibition of activity of the p97 proteosome complex can enable apoptosis and cause elimination of neoplastic cells (cancer cells). The method follows that of Christianson in Nat. Cell Biol., (2011) 14:93.
Assay Buffer is a mixture of 50 mM TRIS pH 7.5, 20 mM MgCl2, 0.02% TX-100, 1 mM DTT and 0.2% (v/v) Glycerol. The well plate is Platetype: Corning 3674, 384w plate. The identification kit is an ADP glo kit (Promega): stop buffer, detection reagent.
Serial dilute compound in DMSO in a 1:3.33-fold 10 point serial dilution.
in each well of 384w plate add the following reagents:
0.5 μL compound serial diluted in DMSO (Final Conc. 10%)
2 μL ATP (Final Conc.=20 uM, diluted in assay buffer)
2.5 μL p97 (Final Conc.=20 nM, diluted in assay buffer)
Incubate at 37 deg C. for 15 min.
Add 5 μL of stop buffer, incubate at RT for 40 min.
Add 10 μL of detection reagent, incubate at RT for 30 min.
Read luminescence on Envision plate reader.
Upon obtaining the data from the luminescence reading, the data may be analyzed as follows:
Normalize luminescence data using no enzyme (full inhibition) and no compound (no inhibition) controls. Plot normalized luminescence data against log-transformed concentration values and fit to a sigmoidal curve to determine IC50 values (done in Collaborative Drug Discovery software).

[2] = A549 cells, 72 hr incubation, cell titer glo

Sequence of p97 (P55072 whole entry): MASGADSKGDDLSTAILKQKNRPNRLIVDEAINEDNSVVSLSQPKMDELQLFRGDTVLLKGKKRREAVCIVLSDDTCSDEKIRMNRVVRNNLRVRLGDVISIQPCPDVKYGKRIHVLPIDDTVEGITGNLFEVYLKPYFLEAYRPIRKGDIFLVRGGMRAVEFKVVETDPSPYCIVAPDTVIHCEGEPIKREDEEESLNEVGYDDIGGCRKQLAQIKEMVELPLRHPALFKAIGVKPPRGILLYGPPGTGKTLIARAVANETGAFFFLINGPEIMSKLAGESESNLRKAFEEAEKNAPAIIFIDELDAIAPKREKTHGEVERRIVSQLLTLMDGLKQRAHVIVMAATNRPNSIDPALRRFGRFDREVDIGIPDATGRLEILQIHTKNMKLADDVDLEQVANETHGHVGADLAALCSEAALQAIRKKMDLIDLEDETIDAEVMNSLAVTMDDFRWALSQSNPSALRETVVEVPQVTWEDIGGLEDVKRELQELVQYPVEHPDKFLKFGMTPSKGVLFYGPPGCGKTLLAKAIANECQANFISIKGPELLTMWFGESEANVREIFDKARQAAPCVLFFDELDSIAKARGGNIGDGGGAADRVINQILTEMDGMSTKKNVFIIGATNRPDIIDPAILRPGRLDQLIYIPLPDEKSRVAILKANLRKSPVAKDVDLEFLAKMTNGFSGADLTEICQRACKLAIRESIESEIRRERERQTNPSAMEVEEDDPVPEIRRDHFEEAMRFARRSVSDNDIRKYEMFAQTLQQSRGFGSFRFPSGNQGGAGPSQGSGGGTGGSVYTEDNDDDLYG

IC50 (A549 cells; [2]) | IC50 [1] | IC50 (p97) | Compound | IC50 (A549 cells; A549, 72 h)
< 3000 nM | < 3000 nM | < 30 nM | Cc1cc2c(C(N)=O)cccc2n1-c1nc(NCc2ccccc2)c2c(n1)N(C)CCC2 [FF29, 1-(4-(benzylamino)-8-methyl-5,6,7,8-tetrahydropyrido[2,3-d]pyrimidin-2-yl)-2-methyl-1H-indole-4-carboxamide] | –
< 3000 nM | < 3000 nM | < 100 nM | Cc1[nH]c2c(C(N)=O)cccc2c1-c1nc2c(c(NCc3ccccc3)n1)COCC2 [FF10, 3-(4-(benzylamino)-7,8-dihydro-5H-pyrano[4,3-d]pyrimidin-2-yl)-2-methyl-1H-indole-7-carboxamide] | –
– | – | < 300 nM | NC(=O)c1cccc2c1cnn2-c1nc2c(c(NCc3ccccc3)n1)COCC2 [FF04, 1-(4-(benzylamino)-7,8-dihydro-5H-pyrano[4,3-d]pyrimidin-2-yl)-1H-indazole-4-carboxamide] | –
< 1000 nM | < 1000 nM | < 30 nM | Cc1cc2c(C(N)=O)cccc2n1-c1nc2c(c(NCc3ccccc3)n1)NCCC2 [FF34, 1-(4-(benzylamino)-5,6,7,8-tetrahydropyrido[3,2-d]pyrimidin-2-yl)-2-methyl-1H-indole-4-carboxamide] | –
< 1000 nM | < 1000 nM | < 30 nM | Cc1cc2c(C(N)=O)cccc2n1-c1nc2c(c(NCc3cccc(F)c3)n1)N(C)CCC2 [FF12, 1-(4-((3-fluorobenzyl)amino)-5-methyl-5,6,7,8-tetrahydropyrido[3,2-d]pyrimidin-2-yl)-2-methyl-1H-indole-4-carboxamide] | –
– | – | < 1000 nM | NC(=O)c1cccc2c1cnn2-c1nc2c(c(NCc3ccccc3)n1)CNCC2 [FF33, 1-(4-(benzylamino)-5,6,7,8-tetrahydropyrido[4,3-d]pyrimidin-2-yl)-1H-indazole-4-carboxamide] | –
< 3000 nM | – | < 100 nM | NC(=O)c1cccc2c1cnn2-c1nc2c(c(NCc3cccc(F)c3)n1)CCCC2 [FF14, 1-(4-((3-fluorobenzyl)amino)-5,6,7,8-tetrahydroquinazolin-2-yl)-1H-indazole-4-carboxamide] | –
< 10000 nM | < 10000 nM | – | Cc1[nH]c2ccccc2c1-c1nc2c(c(NCc3ccccc3)n1)CCCC2 [FF36, N-benzyl-2-(2-methyl-1H-indol-3-yl)-5,6,7,8-tetrahydroquinazolin-4-amine] | –
– | – | < 100 nM | CN1CCCc2nc(-n3ncc4c(C(N)=O)cccc43)nc(NCc3cccc(F)c3)c21 [FF11, 1-(4-((3-fluorobenzyl)amino)-5-methyl-5,6,7,8-tetrahydropyrido[3,2-d]pyrimidin-2-yl)-1H-indazole-4-carboxamide] | –

Continued, molecule first:

Compound | IC50 (A549 cells; [2]) | IC50 [1] | IC50 (p97) | IC50 (A549 cells; A549, 72 h)
COc1nc2c(C(N)=O)cccc2n1-c1nc(NCc2cccc(F)c2)c2c(n1)OCCC2 [FF15, 1-(4-((3-fluorobenzyl)amino)-6,7-dihydro-5H-pyrano[2,3-d]pyrimidin-2-yl)-2-methoxy-1H-benzo[d]imidazole-4-carboxamide] | – | – | < 30 nM | < 3000 nM
Cc1[nH]c2c(C(N)=O)cccc2c1-c1nc(NCc2ccccc2)c2c(n1)OCCC2 [FF27, 3-(4-(benzylamino)-6,7-dihydro-5H-pyrano[2,3-d]pyrimidin-2-yl)-2-methyl-1H-indole-7-carboxamide] | < 3000 nM | < 3000 nM | < 100 nM | –
Cc1oc2c(C(N)=O)cccc2c1-c1nc2c(c(NCc3cccc(F)c3)n1)COCC2 [FF22, 3-(4-((3-fluorobenzyl)amino)-7,8-dihydro-5H-pyrano[4,3-d]pyrimidin-2-yl)-2-methylbenzofuran-7-carboxamide] | – | – | < 1000 nM | –
COc1nc2c(C(N)=O)cccc2n1-c1nc2c(c(NCc3ccccc3)n1)CCCN2 [FF23, 1-(4-(benzylamino)-5,6,7,8-tetrahydropyrido[2,3-d]pyrimidin-2-yl)-2-methoxy-1H-benzo[d]imidazole-4-carboxamide] | < 3000 nM | < 3000 nM | < 30 nM | –
Cc1cc2c(C(N)=O)cccc2n1-c1nc(NCc2ccccc2)c2c(n1)OCCC2 [FF06, 1-(4-(benzylamino)-6,7-dihydro-5H-pyrano[2,3-d]pyrimidin-2-yl)-2-methyl-1H-indole-4-carboxamide] | < 1000 nM | < 1000 nM | < 30 nM | –
Cc1cc2c(C(N)=O)cccc2n1-c1nc(NCc2ccccc2)c2c(n1)C(C)CN(C)C2 (stereo not drawn) [FF13, 1-(4-(benzylamino)-6,8-dimethyl-5,6,7,8-tetrahydropyrido[4,3-d]pyrimidin-2-yl)-2-methyl-1H-indole-4-carboxamide] | – | – | < 100 nM | –
Cc1cc2c(C(N)=O)cccc2n1-c1nc2c(c(NCc3ccccc3)n1)CCNCC2 [FF20, 1-(4-(benzylamino)-6,7,8,9-tetrahydro-5H-pyrimido[4,5-d]azepin-2-yl)-2-methyl-1H-indole-4-carboxamide] | – | – | < 300 nM | < 3000 nM
NC(=O)c1cccc2c1cc(CO)n2-c1nc2c(c(NCc3ccccc3)n1)CCCN2 [FF17, 1-(4-(benzylamino)-5,6,7,8-tetrahydropyrido[2,3-d]pyrimidin-2-yl)-2-(hydroxymethyl)-1H-indole-4-carboxamide] | < 1000 nM | – | < 30 nM | –
Cc1cc2c(CN)cccc2n1-c1nc(NCc2ccccc2)c2c(n1)OCCC2 [FF31, 2-(4-(aminomethyl)-2-methyl-1H-indol-1-yl)-N-benzyl-6,7-dihydro-5H-pyrano[2,3-d]pyrimidin-4-amine] | – | – | < 300 nM | –
NC(=O)c1cccc2c1cnn2-c1nc(NCc2cccc(F)c2)c2c(n1)OCCC2 [FF16, 1-(4-((3-fluorobenzyl)amino)-6,7-dihydro-5H-pyrano[2,3-d]pyrimidin-2-yl)-1H-indazole-4-carboxamide] | < 10000 nM | – | < 30 nM | –
